In turn, `CCCc1nc2c(N)nc3ccccc3c2n1CCCCCC(C)=O` yielded a melting point of 161 to 163 °C.

`Cc1nc[nH]c1CSCCNC(=C[N+](=O)[O-])NCCSCc1nccs1` displayed a melting point of 119 to 120 °C.

Take `CC1=C(C)C(=O)N(c2ccc(C)c(NS(=O)(=O)C(F)(F)F)c2)C1=O`: the melting point was in the range of 152 to 154 °C.

`COc1cc(N)c(Cl)cc1C(=O)NC1CCN(CCn2c(=O)[nH]c3ccccc3c2=O)CC1OC` (stereo not given) displayed a melting point of 271 °C.

`O=C(O)C(=O)c1ccc(OCC(=O)N2CCOCC2)cc1` showed a melting point of 182 to 184 °C.

The compound `COc1ccc2[nH]c3c(C(=O)Nc4ccc(CCCCN(C)Cc5ccc(OC)c(OC)c5)cc4)cccc3c(=O)c2c1` gave a melting point of 172 °C.

`CCCOc1ccc(SC(C)(C)C)cc1C(N)=O` had a melting point of 136 to 138 °C.

As for `Cc1cc2c(cc1-c1csc(C=CC(=O)O)c1)C(C)(C)CCC2(C)C`, the melting point fell in the range of 215 to 220 °C.

The compound `CN1CCC(c2ccc(Oc3ccccc3)cc2)(C(C)(C)O)CC1` gave a melting point of 148 °C.

On to `CS(=O)c1cc2n(c1C(=O)c1ccc(Br)cc1)CCC2C(=O)O` (stereo not given), for which the melting point lay in the range of 226 to 227 °C.

Compound `CCCCCCCCCCCCC(=O)/C=C/C(=O)O` showed a melting point of 97.5 to 98.5 °C.

`CCOC(=O)c1cnc2nn(C)cc2c1OC(C)C` yielded a melting point of 107 to 109 °C.

As to `CC(C)(C)c1cc(-c2cc(C(C)(C)C)cc(C(C)(C)C)c2O)c(O)c(C(C)(C)C)c1`, the melting point was 190 to 195 °C.

`COC(=O)C=Cc1ccc(Br)cc1` gave a melting point of 80 °C.

As for `Cc1cc(Oc2cc(C(F)(F)F)ccn2)ccc1OCCNc1ncnc2scnc12`, the melting point is 107 to 111 °C.

Consider `CCOC(=O)c1c(CS(=O)(=O)c2nccn2C)nc2cc(OC)c(OC)cc2c1-c1ccc(OC)c(OC)c1`, for which the melting point was 183 to 184 °C.

In the case of `NC(=O)N1CCC(c2nn(-c3ccccc3)c3cc(F)ccc23)CC1`, the melting point lay in the range of 149 to 151 °C.

As for `CCC(=O)Oc1ccc2c(c1)CCC1C2CCC2(C)C1CC(O)C2OC(=O)CC` (stereo not given), the melting point stood at 105 °C.

Consider `CC(=O)CC(=O)Nc1ccc(Cn2ccnc2)cc1`, for which the melting point is 175 °C.

In the case of `COC(=O)C(CC(C)C)NC(=O)c1ccc(NCc2ncc[nH]2)cc1-c1ccccc1` (stereo not given), the melting point was in the range of 156 to 160 °C.

Compound `Cc1ccc(CCC(=O)O)cc1C` yielded a melting point of 82 °C.

`O=C1COc2ccc3c(c2N1)C(=O)CC3` yielded a melting point of 136 to 139 °C.

In turn, `CNC(=O)c1ccnc(NC(=O)N2CCC3(CCc4ccc(F)cc4O3)CC2)c1` gave a melting point of 177 to 179 °C.

Take `CC(=O)c1ccc2cc(O)ccc2c1O`: the melting point fell in the range of 195 to 200 °C.

In turn, `CC(=O)Nc1nc(/C=C\c2ccc([N+](=O)[O-])cc2)cs1` had a melting point of 155 to 157 °C.

Take `CC1(C)c2ccc(CCN3CCN(c4noc5ccccc45)CC3)cc2C(C)(C)C1NS(C)(=O)=O` (stereo not given): the melting point lay in the range of 75 to 80 °C.

As to `Cc1ccc(S(=O)(=O)NC(Cc2ccccc2)C(=O)Nc2c(F)cc(F)cc2F)cc1` (stereo not given), the melting point fell in the range of 180 to 181 °C.

Compound `Cn1nc(C(F)(F)F)c(C(=O)O)c1F` came in with a melting point of 165 to 166 °C.

For the compound `COc1ccccc1Oc1c(Cl)nc(SC)nc1Cl`, the melting point lay within 148 to 150 °C.

`Fc1ccc(COc2ncc(F)c(NCc3ccccc3F)n2)cc1` came in with a melting point of 83 to 84 °C.

The compound `O=C(Nc1ccc(CCN2CCCCC2)cc1)C1=Cc2cc(-c3ccccc3)ccc2CC1` displayed a melting point of 157 to 159 °C.

For the compound `O=C(O)c1cc(S(=O)CC(=O)c2ccccc2)cc(C(F)(F)F)c1` (stereo not given), the melting point was in the range of 148 to 151 °C.

Regarding `COc1ccc([C@H]2CCCC[C@H]2NC(=O)c2ccc(C(=O)c3ccccc3)cc2)cc1OC`, the melting point is 119 to 122 °C.

For the compound `COCn1nc(-c2cc(C(C)(C)C)c(O)c(C(C)(C)C)c2)c2cccnc21`, the melting point was 113 to 115 °C.

The compound `O=S(=O)(NCc1ccccc1)c1ccc(Br)cc1` had a melting point of 116 to 117 °C.

Compound `Cc1ccc(-c2ccc(S(C)(=O)=O)cc2)n1CC(C)(C)S` registered a melting point of 124 to 126 °C.

As to `O=C(Nc1ccc(S(=O)(=O)c2ccccn2)cc1)C(O)(C(F)F)C(F)F`, the melting point lay in the range of 200 to 202 °C.

The compound `N#Cc1cc(N2C(=O)C3=C(CCCC3)C2=O)c(F)cc1Cl` showed a melting point of 160 to 162 °C.

With `c1ccc(C2(c3ccccc3)SCCS2)cc1`, the melting point was 104 to 105 °C.

`Clc1ccc(N2CCN(Cc3cn4cc(Br)ccc4n3)CC2)cc1` came in with a melting point of 154 to 155 °C.

In the case of `CCCCOc1ccc(S(=O)(=O)C2(C(=O)NO)CCN(C)CC2)cc1`, the melting point worked out at 118 °C.

Compound `COC(=O)c1ccccc1S(=O)(=O)NC(=O)c1ccc2c(C)cc(C)nn12` returned a melting point of 200 to 202 °C.

`CC(=O)OCCn1cc(C2=C(c3cn(C)c4ccccc34)C(=O)OC2=O)c2ccccc21`: the melting point lay within 198 to 199 °C.

In turn, `COc1cc2c(cc1OC)C(C)=[N+]([O-])CN2` displayed a melting point of 161 to 163 °C.

For the compound `CCCCC(=O)Nc1c(OC)cccc1[N+](=O)[O-]`, the melting point is 113 to 114 °C.

Consider `Cc1noc2cc(N3CCOCC3)ccc12`, for which the melting point was in the range of 138 to 140 °C.

`Cc1cccc(CC(=O)c2ccnc(-c3ccc(C(=O)N4CCOCC4)cc3)c2)n1` returned a melting point of 106 °C.

`COc1cc(CC(=O)NCCOc2ccc(C(=O)O)cc2[N+](=O)[O-])ccc1N(C(N)=O)c1ccccc1C` registered a melting point of 112 to 115 °C.

As for `CS(=O)(=O)Nc1cc2occ(C=Cc3ccccc3)c(=O)c2cc1Oc1ccccc1`, the melting point fell in the range of 174 to 175 °C.

Compound `CNC(=O)O/N=C(/SC)C(F)(F)F` came in with a melting point of 83 to 85 °C.

With `Cc1nc2cnccc2n1-c1ccc(Cn2c(=O)sc3ccccc32)cc1`, the melting point was 198 to 201 °C.

Regarding `C=CC(=O)NC(=O)NCCS(=O)C=C` (stereo not given), the melting point lay within 109 to 110 °C.

For `CCOc1ccc(C2=NN(C(=O)c3cccnc3)CC2)cc1`, the melting point fell in the range of 124 to 125 °C.

As to `CN(C1CCC(=O)CC1)S(=O)(=O)c1ccc(Nc2nccc(Nc3ccc(F)cc3)n2)cc1`, the melting point amounted to 203 °C.

The compound `CC(C)(C)NC(=O)CC(Cc1cccc2ccccc12)C(=O)O` (stereo not given) displayed a melting point of 188 to 190 °C.

As to `CCOC(=O)c1ncc2[nH]c3ccc(C4CCCC(=O)C4)cc3c2c1C` (stereo not given), the melting point lay within 182 to 189 °C.

Compound `CCNC(=O)c1c(C2CC2)nc(CC)n1Cc1ccc2oc(-c3ccccc3C(=O)O)c(Br)c2c1` registered a melting point of 182 to 184 °C.

`CC(C)c1cccc(C(C)C)c1NC(=O)CN1CC2(CCCCC2)N(c2ccccc2)CC1=O` had a melting point of 158 to 160 °C.

Compound `O=S1(=O)CCN2CCN[C@H](c3ccc(Oc4ccccc4)cc3)C2=N1` displayed a melting point of 124 to 125 °C.

The compound `Cc1cc(C(N)=O)ncc1C(c1c(F)ccc(F)c1F)S(=O)(=O)CCC(F)(F)F` (stereo not given) displayed a melting point of 190 to 191 °C.

For `Nc1ccc(OC(=O)C2CCCCC2)c(C(=O)O)c1`, the melting point was 116 to 121 °C.

In turn, `CCOC(=O)/C=C(C)/C=C/C=C(C)/C=C/c1c(C)cc(OC(F)(F)F)c(C)c1C` displayed a melting point of 47 to 49 °C.

The compound `Cc1c(I)c(=O)n(C)c(=O)n1C` had a melting point of 155 to 157 °C.

The compound `CC(C)(O)c1ccc(CC(=O)Nc2cccnc2Oc2cccc(C#N)c2)cc1` returned a melting point of 97 to 99 °C.

As to `CCC(O)(c1ccc(Cl)cc1)c1ccc(OCCCN2CCCCC2)cc1` (stereo not given), the melting point lay in the range of 104 to 105 °C.

`NC(=O)C(NC(=O)OCc1ccccc1)c1ccc(CC2CC2)[nH]1` (stereo not given) came in with a melting point of 184 to 185 °C.

Compound `COc1ccnc(CS(=O)c2nc3cc(C(F)(F)F)ccc3[nH]2)c1C` (stereo not given) came in with a melting point of 225 to 227 °C.

Take `COC(=O)c1cncc(SCc2ccc(OC)cc2)c1`: the melting point is 72 to 74 °C.

As for `O=C(O)CCCCCCCCNC(=O)C1Cc2ccccc2N1S(=O)(=O)c1ccc(-c2cccc(C(F)(F)F)c2)cc1` (stereo not given), the melting point worked out at 60 °C.

`COc1cc2ccccc2cc1C(=O)NNC(=O)c1cc2ccccc2cc1OC`: the melting point lay within 260 to 263 °C.

Turning to `CCCCC1OC(=O)COC1=O` (stereo not given), the melting point is 37 to 39 °C.

Turning to `CCOC(=O)OCCn1nc(-c2cc(C(C)(C)C)c(O)c(C(C)(C)C)c2)c2ccc(C)nc21`, the melting point lay within 145 to 146 °C.

`CCC1(c2ccc3cc(OC)ccc3c2)OC(C(=O)OC)C(C(=O)OC)O1` (stereo not given) registered a melting point of 72 to 73 °C.

The compound `C(=C/c1ccccc1)/COCCC1CCN(Cc2ccccc2)CC1` returned a melting point of 68 to 70 °C.

Regarding `CCC(CC)Sc1cc2c(cc1Cl)N=C(C(N)=O)NS2(=O)=O`, the melting point lay in the range of 287 to 289 °C.

The compound `CCC1C(C)=NN=C(c2ccccc2Cl)c2cc(OC)c(OC)cc21` (stereo not given) displayed a melting point of 129 to 131 °C.

In turn, `OC(CN1CCC(CCOC(c2ccccc2)c2ccccc2)C(O)C1)c1ccc(F)cc1` (stereo not given) came in with a melting point of 84 to 86 °C.

On to `CC(C)(C)c1nc2c(Cl)ccc(C(=O)O)c2o1`, for which the melting point fell in the range of 209 to 210 °C.

`CC(C)n1nc(-c2nc(C(N)=O)c(N)nc2Cl)ccc1=O` had a melting point above 250 °C.

In the case of `CC(=O)NCc1cccc(Nc2nccc(-c3sc(-c4cccs4)nc3C)n2)c1`, the melting point lay within 223 to 225 °C.

The compound `C#CCOC(=O)c1ccc2ccccc2c1` registered a melting point of 68 to 70 °C.

Regarding `CC(C)(C)NS(=O)(=O)c1cc2c(s1)S(=O)(=O)NCC2=O`, the melting point was in the range of 170 to 172 °C.

`Oc1c(Br)cc(-c2c3ccccc3c(Cl)c3sc4ccccc4c23)cc1Br` came in with a melting point of 222 to 223 °C.

`O=C1NCCc2ccc(OCCCCN3CCC(c4cccc(Cl)c4Cl)CC3)cc21` returned a melting point of 113 to 114 °C.

The compound `COC(=O)CCc1cc(C(C)(C)C)c(OP(Cl)c2ccccc2)c(C(C)(C)C)c1` (stereo not given) gave a melting point of 86 to 88 °C.

Consider `N#CC1=C(C2=CCNCC2)Nc2n[nH]cc2C1c1cccc2nonc12` (stereo not given), for which the melting point came to 180 °C.

Consider `CCCc1nc(C)n2nc(S(=O)(=O)Cl)nc2c1Cc1ccc(-c2ccccc2C#N)cc1`, for which the melting point amounted to 141 °C.

`COc1ccc([N+](=O)[O-])c(C#N)c1CBr` gave a melting point of 137 to 138 °C.

`N#Cc1c(N)oc2c(-c3ccccc3)cccc2c1=O`: the melting point was in the range of 217 to 219 °C.

`O=C(/C=C/c1ccc2ccccc2n1)NO` came in with a melting point of 160 °C.

The values are drawn from a melting point compilation (Tetko et al.; mined from patent text by program, amines drawn as free bases though some values may be those of a salt).
